Laboratory results taken from PubChem BioAssay AID330 (DTP/NCI, 2004).
Where “and” joins values, the source holds several entries; their conditions need not be identical. Equal values may be shown once. Inconclusive results and toxic doses are left out. The calls were made as follows: active = survival T/C of 150% or more; inactive = T/C below 125% in these data.

Tested on: P388 leukemia ip, CD2F1 mice, survival T/C
Experiment: NCI In Vivo Anticancer Drug Screen. Data for tumor model P388 Leukemia (intraperitoneal) in CD2F1 (CDF1) mice
Details: endpoint: median survival time, higher = longer survival
How it was run: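 Mice carrying the transplanted tumor received test compound or vehicle. Survival was recorded in each group, and the value is the treated-group measurement divided by that of the vehicle-treated control group.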

[1] = dose: 12.5 mg/kg/injection, schedule: Q01DX009 (ip), vehicle: other
[2] = dose: 25.0 mg/kg/injection, schedule: Q01DX009 (ip), vehicle: other
[3] = dose: 50.0 mg/kg/injection, schedule: Q01DX009 (ip), vehicle: saline with Tween-80
[4] = dose: 100.0 mg/kg/injection, schedule: Q01DX009 (ip), vehicle: saline with Tween-80
[5] = dose: 50.0 mg/kg/injection, schedule: Q01DX009 (ip), vehicle: Klucel (hydroxypropylcellulose) (HPC)
[6] = dose: 100.0 mg/kg/injection, schedule: Q01DX009 (ip), vehicle: Klucel (hydroxypropylcellulose) (HPC)
[7] = dose: 200.0 mg/kg/injection, schedule: Q01DX009 (ip), vehicle: Klucel (hydroxypropylcellulose) (HPC)
[8] = dose: 12.5 mg/kg/injection, schedule: Q01DX005 (ip), vehicle: saline
[9] = dose: 50.0 mg/kg/injection, schedule: Q01DX005 (ip), vehicle: saline with Tween-80
[10] = dose: 100.0 mg/kg/injection, schedule: Q01DX005 (ip), vehicle: saline with Tween-80
[11] = dose: 200.0 mg/kg/injection, schedule: Q01DX005 (ip), vehicle: saline with Tween-80
[12] = dose: 25.0 mg/kg/injection, schedule: Q01DX009 (ip), vehicle: Klucel (hydroxypropylcellulose) (HPC)
[13] = dose: 50.0 mg/kg/injection, schedule: Q01DX009 (ip), vehicle: other
[14] = dose: 100.0 mg/kg/injection, schedule: Q01DX009 (ip), vehicle: other
[15] = dose: 200.0 mg/kg/injection, schedule: Q01DX009 (ip), vehicle: other
[16] = dose: 200.0 mg/kg/injection, schedule: Q01DX009 (ip), vehicle: saline with Tween-80
[17] = dose: 12.5 mg/kg/injection, schedule: Q01DX009 (ip), vehicle: saline
[18] = dose: 25.0 mg/kg/injection, schedule: Q01DX009 (ip), vehicle: saline
[19] = dose: 100.0 mg/kg/injection, schedule: Q01DX009 (ip), vehicle: saline
[20] = dose: 200.0 mg/kg/injection, schedule: Q01DX009 (ip), vehicle: saline
[21] = dose: 60.0 mg/kg/injection, schedule: Q01DX005 (ip), vehicle: saline with Tween-80
[22] = dose: 120.0 mg/kg/injection, schedule: Q01DX005 (ip), vehicle: saline with Tween-80
[23] = dose: 240.0 mg/kg/injection, schedule: Q01DX005 (ip), vehicle: saline with Tween-80

Measured: T/C

COc1cccc2c1C(=O)c1c(O)c3c(c(O)c1C2=O)CC(NO)CC3OC1CC(NC(=O)C(F)(F)F)C(O)C(C)O1 (centres undefined)
inactive: dose: 1.56 mg/kg/injection, schedule: Q01DX009 (ip), vehicle: other 103 % of control and 101 % of control | dose: 3.13 mg/kg/injection, schedule: Q01DX009 (ip), vehicle: other 104 % of control and 106 % of control | dose: 6.25 mg/kg/injection, schedule: Q01DX009 (ip), vehicle: other 108 % of control and 110 % of control | [1] 113 % of control | [2] 116 % of control and 107 % of control

Cc1cccc(OCC(O)CNC(C)(C)C)c1C (centres undefined)
inactive: dose: 12.5 mg/kg/injection, schedule: Q01DX009 (ip), vehicle: saline with Tween-80 99 % of control | dose: 25.0 mg/kg/injection, schedule: Q01DX009 (ip), vehicle: saline with Tween-80 98 % of control | [3] 99 % of control | [4] 99 % of control

CC1CN1P(=S)(N1CC1C)N1CC1C (centres undefined)
inactive: dose: 2.5 mg/kg/injection, schedule: Q01DX010 (ip), vehicle: saline 110 % of control | dose: 5.0 mg/kg/injection, schedule: Q01DX010 (ip), vehicle: saline 95 % of control | dose: 10.0 mg/kg/injection, schedule: Q01DX010 (ip), vehicle: saline 115 % of control

COc1cc(/C=C/C(=O)c2c(N)n(C)c(=O)n(C)c2=O)cc(OC)c1OC
inactive: [5] 113 % of control | [6] 115 % of control | [7] 113 % of control

Cn1c2ccccc2c2nnc(-n3nc(-c4ccccc4)cc3N)nc21
inactive: dose: 100.0 mg/kg/injection, schedule: Q04DX002 (ip), vehicle: saline with Tween-80 92 % of control | dose: 200.0 mg/kg/injection, schedule: Q04DX002 (ip), vehicle: saline with Tween-80 92 % of control | dose: 400.0 mg/kg/injection, schedule: Q04DX002 (ip), vehicle: saline with Tween-80 91 % of control

COc1cc(NCC(C)(O)CN2CCCCC2)c2ncccc2c1 (centres undefined)
inactive: [8] 94 % of control | dose: 25.0 mg/kg/injection, schedule: Q01DX005 (ip), vehicle: saline 98 % of control | dose: 50.0 mg/kg/injection, schedule: Q01DX005 (ip), vehicle: saline 93 % of control and 97 % of control

COc1cc2c(cc1C(C)c1cc(C)c(OC)c(C)c1)OCO2 (centres undefined)
inactive: [9] 100 % of control | [10] 106 % of control | [11] 101 % of control

C=C1C(=O)OC2/C=C(\C)CC/C=C(\C)C(OC(C)=O)C(OC(=O)C3(C)OC3C)C12O (centres undefined)
inactive: dose: 12.5 mg/kg/injection, schedule: Q01DX009 (ip), vehicle: Klucel (hydroxypropylcellulose) (HPC) 105 % of control | [12] 115 % of control | [5] 115 % of control | [6] 94 % of control

Clc1nnc(C(Cl)Cl)o1
inactive: [5] 114 % of control | [6] 106 % of control | [7] 99 % of control

C[Si](C)(C)N([Si](C)(C)C)[Si](C)(C)C
inactive: [13] 97 % of control | [14] 98 % of control | [15] 100 % of control

O=C1Nc2ncnc(Cl)c2Cc2ccccc21
inactive: [3] 100 % of control | [4] 104 % of control | [16] 104 % of control

O=c1cncc[nH]1
inactive: [17] 105 % of control | [18] 108 % of control | dose: 50.0 mg/kg/injection, schedule: Q01DX009 (ip), vehicle: saline 108 % of control | [19] 109 % of control | [20] 96 % of control

CCOP(=O)(CC(=O)NCc1cc(C(C)(C)C)c(O)c(C(C)(C)C)c1)OCC
inactive: [3] 100 % of control | [4] 93 % of control | [16] 96 % of control

CN1C(=O)C(Br)(Br)CC1c1cccnc1 (centres undefined)
inactive: dose: 60.0 mg/kg/injection, schedule: Q01DX005 (ip), vehicle: Klucel (hydroxypropylcellulose) (HPC) 101 % of control | dose: 120.0 mg/kg/injection, schedule: Q01DX005 (ip), vehicle: Klucel (hydroxypropylcellulose) (HPC) 109 % of control | dose: 240.0 mg/kg/injection, schedule: Q01DX005 (ip), vehicle: Klucel (hydroxypropylcellulose) (HPC) 100 % of control

CCOc1cc2c(cc1C/C=C/c1ccc(OC)cc1)OCO2
inactive: [21] 103 % of control | [22] 103 % of control | [23] 113 % of control

CSc1nc2c(nnn2C2OC(CO)C(O)C(O)C2O)c(=O)[nH]1 (centres undefined)
inactive: [21] 100 % of control | [22] 97 % of control | [23] 102 % of control

Nc1c(C(=O)NCc2ccccc2)c2nc3c(C(=O)NCc4ccccc4)ccc(Br)c3oc-2c(Br)c1=O
inactive: [9] 98 % of control | [10] 86 % of control | [11] 89 % of control

CCC(=O)NC(C)C(=O)O (centres undefined)
inactive: dose: 6.25 mg/kg/injection, schedule: Q01DX009 (ip), vehicle: saline 100 % of control | [17] 88 % of control | [18] 88 % of control | [19] 94 % of control | [20] 97 % of control

COC(=O)/C=C/CCOC1CCCCO1 (centres undefined)
inactive: [13] 108 % of control | [14] 112 % of control | [15] 107 % of control

c1ccc2c(c1)CC1ON3CCc4ccccc4C3C21 (centres undefined)
inactive: [3] 97 % of control | [4] 94 % of control | [16] 92 % of control

CC(NC(=O)OCc1ccccc1)C(=O)NC1C(O)OC(CO)C(O)C1O (centres undefined)
inactive: [1] 96 % of control | [2] 100 % of control | dose: 25.0 mg/kg/injection, schedule: Q01DX009 (ip), vehicle: water 104 % of control | dose: 50.0 mg/kg/injection, schedule: Q01DX009 (ip), vehicle: water 93 % of control | dose: 100.0 mg/kg/injection, schedule: Q01DX009 (ip), vehicle: water 106 % of control | dose: 200.0 mg/kg/injection, schedule: Q01DX009 (ip), vehicle: water 102 % of control

COc1cccc(C2SCC(=O)N2c2nncs2)c1 (centres undefined)
inactive: [21] 100 % of control | [22] 97 % of control | [23] 104 % of control

O=C(O)c1ccc2c3c(ccc(C(=O)O)c13)CC2
inactive: [12] 105 % of control | [5] 102 % of control | [6] 99 % of control

CCOC(=O)CCCCc1cccc2ccccc12
inactive: [13] 103 % of control | [14] 100 % of control | [15] 107 % of control

COC1=NCc2ccccc2C2(OC)C(C)(C)C12C#N (centres undefined)
inactive: [9] 96 % of control | [10] 99 % of control | [11] 101 % of control

CCCCCN(CCCCC)CCCNc1c2c(nc3ccc(OC)cc13)CCCC2
inactive: dose: 3.12 mg/kg/injection, schedule: Q01DX005 (ip), vehicle: saline 94 % of control | dose: 6.25 mg/kg/injection, schedule: Q01DX005 (ip), vehicle: saline 103 % of control | [8] 99 % of control

C(#CC1CO1)CCCC#CC1CO1 (centres undefined)
inactive: dose: 12.5 mg/kg/injection, schedule: Q01DX005 (ip), vehicle: saline with Tween-80 106 % of control | dose: 25.0 mg/kg/injection, schedule: Q01DX005 (ip), vehicle: saline with Tween-80 110 % of control | [9] 107 % of control and 124 % of control

O=C1C=C(c2ccccc2)Sc2ccccc2N1
inactive: [5] 95 % of control | [6] 88 % of control | [7] 87 % of control | dose: 400.0 mg/kg/injection, schedule: Q01DX009 (ip), vehicle: Klucel (hydroxypropylcellulose) (HPC) 94 % of control

Cn1nnnc1N/N=C(\Br)c1ccccc1
inactive: [16] 104 % of control | dose: 400.0 mg/kg/injection, schedule: Q01DX009 (ip), vehicle: saline with Tween-80 104 % of control

CNCC1CCCCC1NC (centres undefined)
inactive: dose: 50.0 mg/kg/injection, schedule: Q04DX003 (ip), vehicle: saline 99 % of control | dose: 100.0 mg/kg/injection, schedule: Q04DX003 (ip), vehicle: saline 97 % of control | dose: 200.0 mg/kg/injection, schedule: Q04DX003 (ip), vehicle: saline 96 % of control

COc1ccccc1/C(=N/[N+](C)(C)C)C(C)C
inactive: dose: 6.25 mg/kg/injection, schedule: Q04DX002 (ip), vehicle: saline 100 % of control | dose: 12.5 mg/kg/injection, schedule: Q04DX002 (ip), vehicle: saline 100 % of control | dose: 25.0 mg/kg/injection, schedule: Q04DX002 (ip), vehicle: saline 93 % of control
